Assays:
[1] = system: epinephrine-accelerated heart rate (anti-β effect); test: Antiadrenergic effect: anti-β effect (reduction of epinephrine-accelerated heart rate); format: in vivo; conditions: dog; for inhibition in vivo at 7.5 mg/kg: dose 7.5 mg/kg i.v.
Procedure: (§1) The purpose of this test was to determine the capacity of the compounds under study to reduce epinephrine-increased blood-pressure (anti-α effect) and epinephrine-accelerated heart rate (anti-β effect) in the dog previously anaesthetized with pentobarbital and atropinized.
(§2) For each dog, the dose of epinephrine was first determined which provoked a reproductible increase by about 100 mm. Hg in the arterial pressure (between 5 and 10 μg/kg). After that, the dose of epinephrine so determined was administered followed by a dose by intravenous route of the compound to be studied. The percentage of reduction of the hypertension provoked by the compound under study in comparison with the hypertension previously obtained (about 100 mm. Hg) was then registered.
(§3) The percentage of reduction of the epinephrine-induced acceleration of heart-rate produced by the compound under study in comparison with the tachycardia previously measured (about 70 beats) was then registered. In both cases, the results were expressed as follows: […]
(§4) + for a <50%-reduction of the increase in pressure or cardiac frequency
(§5) ++ for a ≥50%-reduction of the increase in pressure or cardiac frequency
(§6) +++ for a subtotal reduction of the increase in pressure or cardiac frequency

[2] = system: epinephrine-increased blood-pressure (anti-α effect); test: Antiadrenergic effect: anti-α effect (reduction of epinephrine-increased blood-pressure); format: in vivo; conditions: dog
Procedure: as §1, §2, §3, §4, §5, §6

[3] = Canis lupus familiaris, iv, dose 5 mg/kg i.v.
[4] = Canis lupus familiaris, iv, dose 10 mg/kg i.v.

For `CCCN(CCC)CCCOc1ccc(C(=O)c2c(-c3ccc(Cl)cc3)c(Cl)c3ccccn23)cc1` [Cl/H/H/drawing 35/n-C3H7/3], the inhibition in vivo at 5 mg/kg [1, 3] was under 50% and the inhibition in vivo at 5 mg/kg [2, 3] was over 50%.
Molecule `CCCCN(CCCC)CCCOc1c(Br)cc(C(=O)c2c(-c3ccccc3)cc3ccccn23)cc1Br` [H/Br/Br/drawing 42/n-C4H9/3] has an inhibition in vivo at 10 mg/kg [1, 4] of over 50% and an inhibition in vivo at 10 mg/kg [2, 4] of over 50%.
For `CCCCN(CCCC)CCCOc1ccc(C(=O)c2c(CC)c(C)c3ccccn23)cc1Br` [CH3/Br/H/C2H5/n-C4H9/3, 1-Methyl-2-ethyl-3-[4-(3-di-n-butylaminopropyl)-oxy-3-bromo-benzoyl]-indolizine], the inhibition in vivo at 2 mg/kg ([1]; Canis lupus familiaris, iv, dose 2 mg/kg i.v.) was over 50% and the Anti-α effect ([2]; dose 2 mg/kg i.v.) was “+++”.
`CCCN(CCC)CCCOc1ccc(C(=O)c2c(-c3ccccc3)c(OC)c3ccccn23)cc1OC` [OCH3/OCH3/H/drawing 44/n-C3H7/3] showed an inhibition in vivo at 10 mg/kg [1, 4] of over 50% and an inhibition in vivo at 10 mg/kg [2, 4] of over 50%.
For `CCCCN(CCCC)CCCOc1ccc(C(=O)c2c(CC)cc3ccccn23)cc1OC` [H/OCH3/H/C2H5/n-C4H9/3, 2-Ethyl-3-[4-(3-di-n-butylaminopropyl)-oxy-3-methoxy-benzoyl]-indolizine], the inhibition in vivo at 10 mg/kg [1, 4] was over 50% and the Anti-α effect ([2]; dose 10 mg/kg i.v.) was “+++”.
In the case of `CCCc1c(Br)c2ccccn2c1C(=O)c1cc(Br)c(OCCCN(CCC)CCC)c(Br)c1` [Br/Br/Br/n-C3H7/n-C3H7/3, 1-Bromo-2-n-propyl-3-[4-(3-di-n-propylaminopropyl)-oxy-3,5-dibromo-benzoyl]-indolizine], the Anti-β effect ([1]; dose 10 mg/kg i.v.) is reported as “+++” and the Anti-α effect ([2]; dose 10 mg/kg i.v.) is reported as “+++”.
`CCCCc1cc2ccccn2c1C(=O)c1ccc(OCCCN(CCC)CCC)c(Br)c1` [H/Br/H/n-C4H9/n-C3H7/3, 2-n-Butyl-3-[4-(3-di-n-propylaminopropyl)-oxy-3-bromo-benzoyl]-indolizine] was tested, and the inhibition in vivo at 5 mg/kg [1, 3] was over 50% and the Anti-α effect ([2]; dose 5 mg/kg i.v.) was “+++”.
In the case of `CCCN(CCC)CCCOc1ccc(C(=O)c2c(-c3ccccc3)c(C)c3ccccn23)cc1` [CH3/H/H/drawing 48/n-C3H7/3, 1-Methyl-2-phenyl-3-[4-(3-di-n-propylaminopropyl)-oxy-benzoyl]-indolizine], the Anti-β effect ([1]; dose 5 mg/kg i.v.) is reported as “+++” and the Anti-α effect ([2]; dose 5 mg/kg i.v.) is reported as “+++”.
In the case of `CCCCN(CCCC)CCCOc1c(Cl)cc(C(=O)c2c(-c3ccccc3)c(Cl)c3ccccn23)cc1Cl` [Cl/Cl/Cl/drawing 37/n-C4H9/3, 1-Chloro-2-phenyl-3-[4-(3-di-n-butylaminopropyl)-oxy-3,5-dichloro-benzoyl]-indolizine], the inhibition in vivo at 10 mg/kg [1, 4] is reported as over 50% and the Anti-α effect ([2]; dose 10 mg/kg i.v.) is reported as “+++”.
With `CCCCN(CCCC)CCCOc1ccc(C(=O)c2c(-c3ccc(Br)cc3)cc3ccccn23)cc1Cl` [H/Cl/H/drawing 31/n-C4H9/3] the inhibition in vivo at 10 mg/kg [1, 4] was under 50% and the inhibition in vivo at 10 mg/kg [2, 4] was over 50%.
In the case of `CCCCN(CCCC)CCCOc1ccc(C(=O)c2c(CC)c(Br)c3ccccn23)cc1OC` [Br/OCH3/H/C2H5/n-C4H9/3, 1-Bromo-2-ethyl-3-[4-(3-di-n-butylaminopropyl)-oxy-3-methoxy-benzoyl]-indolizine], the inhibition in vivo at 5 mg/kg [1, 3] is reported as over 50% and the inhibition in vivo at 5 mg/kg [2, 3] is reported as over 50%.
For `CCCN(CCC)CCCOc1ccc(C(=O)c2c(C(C)C)cc3ccccn23)cc1Br` [H/Br/H/iso-C3H7/n-C3H7/3, 2-Isopropyl-3-[4-(3-di-n-propylaminopropyl)-oxy-3-bromo-benzoyl]-indolizine], the inhibition in vivo at 7.5 mg/kg ([1]; Canis lupus familiaris, iv) was over 50% and the Anti-α effect ([2]; dose 7.5 mg/kg i.v.) was “+++”.
`CCCCN(CCCC)CCCOc1ccc(C(=O)c2c(CC)cc3ccccn23)cc1C` [H/CH3/H/C2H5/n-C4H9/3, 2-Ethyl-3-[4-(3-di-n-butylaminopropyl)-oxy-3-methyl-benzoyl]-indolizine] was tested, and the Anti-β effect ([1]; dose 10 mg/kg i.v.) was “+++” and the Anti-α effect ([2]; dose 10 mg/kg i.v.) was “+++”.
`CCCN(CCC)CCCOc1ccc(C(=O)c2c(-c3ccc(Cl)cc3)c(Br)c3ccccn23)cc1Cl` [Br/Cl/H/drawing 30/n-C3H7/3] was tested, and the inhibition in vivo at 10 mg/kg [1, 4] was over 50% and the Anti-α effect ([2]; dose 10 mg/kg i.v.) was “+++”.
In the case of `CCCCN(CCCC)CCCOc1ccc(C(=O)c2c(-c3ccccc3)c(Br)c3ccccn23)cc1Cl` [Br/Cl/H/drawing 26/n-C4H9/3], the Anti-β effect ([1]; dose 10 mg/kg i.v.) is reported as “+++” and the inhibition in vivo at 10 mg/kg [2, 4] is reported as over 50%.
In the case of `CCCCc1c(C)c2ccccn2c1C(=O)c1ccc(OCCCN(CCCC)CCCC)c(Br)c1` [CH3/Br/H/n-C4H9/n-C4H9/3, 1-Methyl-2-n-butyl-3-[4-(3-di-n-butylaminopropyl)-oxy-3-bromo-benzoyl]-indolizine], the inhibition in vivo at 7.5 mg/kg ([1]; Canis lupus familiaris, iv) is reported as over 50% and the inhibition in vivo at 7.5 mg/kg ([2]; Canis lupus familiaris, iv, dose 7.5 mg/kg i.v.) is reported as over 50%.
In the case of `CCCCN(CCCC)CCCOc1ccc(C(=O)c2c(CC)cc3ccccn23)cc1Br` [H/Br/H/C2H5/n-C4H9/3, 2-Ethyl-3-[4-(3-di-n-butylaminopropyl)-oxy-3-bromo-benzoyl]-indolizine], the inhibition in vivo at 7.5 mg/kg ([1]; Canis lupus familiaris, iv) is reported as over 50% and the Anti-α effect ([2]; dose 7.5 mg/kg i.v.) is reported as “+++”.
`CCCCN(CCCC)CCCOc1ccc(C(=O)c2c(-c3ccccc3)c(C)c3ccccn23)cc1Br` [CH3/Br/H/drawing 45/n-C4H9/3, 1-Methyl-2-phenyl-3-[4-(3-di-n-butylaminopropyl)-oxy-3-bromo-benzoyl]-indolizine] was tested, and the inhibition in vivo at 6.2 mg/kg ([1]; Canis lupus familiaris, iv, dose 6.2 mg/kg i.v.) was over 50% and the Anti-α effect ([2]; dose 6.2 mg/kg i.v.) was “+++”.
In the case of `CCCN(CCC)CCCOc1c(Br)cc(C(=O)c2c(-c3ccc(Br)cc3)cc3ccccn23)cc1Br` [H/Br/Br/drawing 41/n-C3H7/3], the Anti-β effect ([1]; dose 10 mg/kg i.v.) is reported as “+++” and the Anti-α effect ([2]; dose 10 mg/kg i.v.) is reported as “+++”.
`CCCCN(CCCC)CCCOc1ccc(C(=O)c2c(-c3cccc(Br)c3)cc3ccccn23)cc1Cl` [H/Cl/H/drawing 25/n-C4H9/3] was tested, and the inhibition in vivo at 10 mg/kg [1, 4] was over 50% and the inhibition in vivo at 10 mg/kg [2, 4] was over 50%.
`CCCN(CCC)CCCOc1c(Br)cc(C(=O)c2c(-c3ccccc3)c(Cl)c3ccccn23)cc1Br` [Cl/Br/Br/drawing 38/n-C3H7/3, 1-Chloro-2-phenyl-3-[4-(3-di-n-propylaminopropyl)-oxy-3,5-dibromo-benzoyl]-indolizine] showed an inhibition in vivo at 10 mg/kg [1, 4] of under 50% and an inhibition in vivo at 10 mg/kg [2, 4] of under 50%.
With `CCCCN(CCCC)CCCOc1ccc(C(=O)c2c(CC)c(Br)c3ccccn23)cc1` [Br/H/H/C2H5/n-C4H9/3, 1-Bromo-2-ethyl-3-[4-(3-di-n-butylaminopropyl)-oxy-benzoyl]-indolizine] the Anti-β effect ([1]; dose 6 mg/kg i.v.) was “+++” and the Anti-α effect ([2]; dose 6 mg/kg i.v.) was “+++”.
`CCCCN(CCCC)CCCOc1ccc(C(=O)c2c(-c3ccccc3)c(Cl)c3ccccn23)cc1` [Cl/H/H/drawing 36/n-C4H9/3] was tested, and the Anti-β effect ([1]; dose 5 mg/kg i.v.) was “+++” and the Anti-α effect ([2]; dose 5 mg/kg i.v.) was “+++”.
For `CCCCN(CCCC)CCCOc1ccc(C(=O)c2c(C(C)C)cc3ccccn23)cc1Br` [H/Br/H/iso-C3H7/n-C4H9/3], the inhibition in vivo at 6 mg/kg ([1]; Canis lupus familiaris, iv, dose 6 mg/kg i.v.) was over 50% and the Anti-α effect ([2]; dose 6 mg/kg i.v.) was “+++”.
For `CCCCN(CCCC)CCCOc1ccc(C(=O)c2c(-c3ccc(F)cc3)c(Br)c3ccccn23)cc1Br` [Br/Br/H/drawing 23/n-C4H9/3], the inhibition in vivo at 10 mg/kg [1, 4] was over 50% and the Anti-α effect ([2]; dose 10 mg/kg i.v.) was “+++”.
`CCCCN(CCCC)CCCOc1ccc(C(=O)c2c(CC)c(Br)c3ccccn23)cc1Cl` [Br/Cl/H/C2H5/n-C4H9/3, 1-Bromo-2-ethyl-3-[4-(3-di-n-butylaminopropyl)-oxy-3-chloro-benzoyl]-indolizine] was tested, and the Anti-β effect ([1]; dose 10 mg/kg i.v.) was “+++” and the Anti-α effect ([2]; dose 10 mg/kg i.v.) was “+++”.
For `CCCN(CCC)CCCOc1ccc(C(=O)c2c(-c3cccc(Br)c3)c(Br)c3ccccn23)cc1Cl` [Br/Cl/H/drawing 32/n-C3H7/3], the Anti-β effect ([1]; dose 10 mg/kg i.v.) was “+++” and the Anti-α effect ([2]; dose 10 mg/kg i.v.) was “+++”.
With `CCCCN(CCCC)CCCOc1ccc(C(=O)c2c(-c3ccc(Cl)cc3)c(Cl)c3ccccn23)cc1` [Cl/H/H/drawing 34/n-C4H9/3] the inhibition in vivo at 10 mg/kg [1, 4] was over 50% and the Anti-α effect ([2]; dose 10 mg/kg i.v.) was “+++”.
`CCCN(CCC)CCCOc1ccc(C(=O)c2c(CC)cc3ccccn23)cc1Cl` [H/Cl/H/C2H5/n-C3H7/3, 2-Ethyl-3-[4-(3-di-n-propylaminopropyl)-oxy-3-chloro-benzoyl]-indolizine] was tested, and the inhibition in vivo at 10 mg/kg [1, 4] was over 50% and the inhibition in vivo at 10 mg/kg [2, 4] was over 50%.
`CCCN(CCC)CCCOc1ccc(C(=O)c2c(-c3ccccc3)c(C)c3ccccn23)cc1Br` [CH3/Br/H/drawing 46/n-C3H7/3, 1-Methyl-2-phenyl-3-[4-(3-di-n-propylaminopropyl)-oxy-3-bromo-benzoyl]-indolizine] was tested, and the inhibition in vivo at 5 mg/kg [1, 3] was over 50% and the inhibition in vivo at 5 mg/kg [2, 3] was over 50%.
`CCCN(CCC)CCCOc1ccc(C(=O)c2c(-c3ccccc3)c(OC)c3ccccn23)cc1Cl` [OCH3/Cl/H/drawing 43/n-C3H7/3, 1-Methoxy-2-phenyl-3-[4-(3-di-n-propylaminopropyl)-oxy-3-chloro-benzoyl]-indolizine] was tested, and the Anti-β effect ([1]; dose 10 mg/kg i.v.) was “+++” and the Anti-α effect ([2]; dose 10 mg/kg i.v.) was “+++”.
With `CCCCN(CCCC)CCCOc1ccc(C(=O)c2c(-c3ccc(Cl)cc3)c(Br)c3ccccn23)cc1Cl` [Br/Cl/H/drawing 28/n-C4H9/3] the inhibition in vivo at 10 mg/kg [1, 4] was over 50% and the inhibition in vivo at 10 mg/kg [2, 4] was over 50%.
With `CCCCN(CCCC)CCCOc1ccc(C(=O)c2c(CC)c(Cl)c3ccccn23)cc1Br` [Cl/Br/H/C2H5/n-C4H9/3, 1-Chloro-2-ethyl-3-[4-(3-di-n-butylaminopropyl)-oxy-3-bromo-benzoyl]-indolizine] the Anti-β effect ([1]; dose 10 mg/kg i.v.) was “+++” and the Anti-α effect ([2]; dose 10 mg/kg i.v.) was “+++”.
For `CCCN(CCC)CCCOc1ccc(C(=O)c2c(-c3cccc(Br)c3)c(Cl)c3ccccn23)cc1Cl` [Cl/Cl/H/drawing 33/n-C3H7/3, 1-Chloro-2-(3-bromo-phenyl)-3-[4-(3-di-n-propylaminopropyl)-oxy-3-chloro-benzoyl]-indolizine], the inhibition in vivo at 8 mg/kg ([1]; Canis lupus familiaris, iv, dose 8 mg/kg i.v.) was over 50% and the Anti-α effect ([2]; dose 8 mg/kg i.v.) was “+++”.

From US4520026A, “Indolizine derivatives and use as cardiovascular agents” (S. A. Labaz N.V., priority 1982, dated 1985)
